Assay results published in ChEMBL document CHEMBL1140924, “Biomedical application of orexin/hypocretin receptor ligands in neuroscience” (J Med Chem, 2009).
Converted amounts (≈) assume the structure as drawn.

Tests used:
[1] = target: T1, Orexin/Hypocretin receptor type 1 (Homo sapiens, UniProt O43613); assay: Antagonist activity at OX1 receptor by FLIPR; format: functional
T1 sequence (O43613 whole entry): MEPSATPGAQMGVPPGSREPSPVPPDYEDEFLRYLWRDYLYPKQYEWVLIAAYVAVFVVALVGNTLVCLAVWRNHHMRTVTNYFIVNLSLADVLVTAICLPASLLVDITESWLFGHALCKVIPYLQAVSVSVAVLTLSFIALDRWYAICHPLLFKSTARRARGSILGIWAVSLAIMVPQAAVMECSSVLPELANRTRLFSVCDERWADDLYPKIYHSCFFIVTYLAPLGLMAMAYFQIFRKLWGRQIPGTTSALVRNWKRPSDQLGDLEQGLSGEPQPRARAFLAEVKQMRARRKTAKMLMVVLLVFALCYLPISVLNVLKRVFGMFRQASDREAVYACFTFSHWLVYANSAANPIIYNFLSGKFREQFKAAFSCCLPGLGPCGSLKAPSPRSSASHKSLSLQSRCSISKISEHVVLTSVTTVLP

Orexin receptor type 2 [2] = target: T2, Orexin receptor type 2 (Homo sapiens, UniProt O43614); assay: Antagonist activity at OX2 receptor by FLIPR; format: functional
T2 sequence (O43614 whole entry): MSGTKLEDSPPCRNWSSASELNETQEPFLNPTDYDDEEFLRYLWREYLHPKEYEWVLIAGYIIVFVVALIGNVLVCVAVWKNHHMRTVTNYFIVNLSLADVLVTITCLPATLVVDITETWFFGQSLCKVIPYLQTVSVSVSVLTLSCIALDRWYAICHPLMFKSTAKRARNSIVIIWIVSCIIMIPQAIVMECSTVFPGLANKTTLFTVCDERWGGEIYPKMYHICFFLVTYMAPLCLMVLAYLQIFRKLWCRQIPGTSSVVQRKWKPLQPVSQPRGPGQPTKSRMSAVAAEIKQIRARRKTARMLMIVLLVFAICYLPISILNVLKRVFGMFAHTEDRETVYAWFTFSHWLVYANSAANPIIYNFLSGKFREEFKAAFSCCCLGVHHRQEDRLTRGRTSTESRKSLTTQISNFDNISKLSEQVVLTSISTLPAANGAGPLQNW

[3] = target: T1, Orexin/Hypocretin receptor type 1; assay: Antagonist activity at human OX1 receptor; format: functional
Orexin receptor type 2 [4] = target: T2, Orexin receptor type 2; assay: Antagonist activity at human OX2 receptor; format: functional
Orexin receptor type 2 [5] = target: T2, Orexin receptor type 2; assay: Binding affinity to OX2 receptor
[6] = Selectivity of Ki for OX1 receptor to Ki for OX2 receptor
[7] = target: Kappa-type opioid receptor (Homo sapiens) (UniProt P41145); assay: Inhibition of kappa opioid receptor at 10 uM
[8] = target: T3, Neuropeptide Y receptor type 1 (Homo sapiens) (UniProt P25929); assay: Inhibition of NPY1 receptor at 10 uM
T3 sequence (whole entry): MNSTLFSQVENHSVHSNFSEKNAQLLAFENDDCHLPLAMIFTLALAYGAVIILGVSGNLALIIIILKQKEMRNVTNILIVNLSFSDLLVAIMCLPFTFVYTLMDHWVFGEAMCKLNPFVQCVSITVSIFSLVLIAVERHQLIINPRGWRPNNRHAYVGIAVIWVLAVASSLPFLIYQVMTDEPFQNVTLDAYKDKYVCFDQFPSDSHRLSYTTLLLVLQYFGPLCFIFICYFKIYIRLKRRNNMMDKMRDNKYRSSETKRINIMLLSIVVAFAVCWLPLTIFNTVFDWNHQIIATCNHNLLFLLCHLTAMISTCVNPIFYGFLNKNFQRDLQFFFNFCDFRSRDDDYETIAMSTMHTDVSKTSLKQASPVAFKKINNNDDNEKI

[9] = target: T4, Neuromedin-K receptor (Homo sapiens) (UniProt P29371); assay: Inhibition of neurokinin-3 receptor at 10 uM
T4 sequence (whole entry): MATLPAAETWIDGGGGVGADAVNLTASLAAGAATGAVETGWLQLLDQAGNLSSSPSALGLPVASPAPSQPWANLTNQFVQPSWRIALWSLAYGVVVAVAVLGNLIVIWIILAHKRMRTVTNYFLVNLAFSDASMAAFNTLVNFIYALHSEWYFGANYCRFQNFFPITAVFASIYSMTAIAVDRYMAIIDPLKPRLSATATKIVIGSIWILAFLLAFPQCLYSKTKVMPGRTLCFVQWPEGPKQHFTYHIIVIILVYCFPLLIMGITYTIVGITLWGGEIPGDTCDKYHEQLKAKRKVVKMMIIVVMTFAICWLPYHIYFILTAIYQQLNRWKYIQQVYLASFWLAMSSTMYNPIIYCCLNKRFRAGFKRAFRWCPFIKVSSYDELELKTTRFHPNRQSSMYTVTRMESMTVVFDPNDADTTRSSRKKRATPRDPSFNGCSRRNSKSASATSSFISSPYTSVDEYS

[10] = Inhibition of galanin receptor at 10 uM
[11] = Inhibition of neuropeptide Y receptor at 10 uM
[12] = Aqueous solubility at pH 7; format: physicochemical
[13] = target: T1, Orexin/Hypocretin receptor type 1; assay: Binding affinity to OX1 receptor
[14] = Selectivity for OX1 receptor over OX2 receptor
[15] = target: T5, Orexin/Hypocretin receptor type 1 (Homo sapiens) (UniProt O43613); assay: Antagonist activity at human OX1 receptor expressed in CHO cells assessed as inhibition of receptor-mediated calcium response by FLIPR; format: functional, cell-based
T5 sequence (whole entry): T1 sequence (O43613 whole entry)

[16] = target: T6, Orexin receptor type 2 (Homo sapiens) (UniProt O43614); assay: Antagonist activity at human OX2 receptor expressed in CHO cells assessed as inhibition of receptor-mediated calcium response by FLIPR; format: functional, cell-based
T6 sequence (whole entry): T2 sequence (O43614 whole entry)

Chain of Kappa-type opioid receptor (Homo sapiens) (P41145 whole entry): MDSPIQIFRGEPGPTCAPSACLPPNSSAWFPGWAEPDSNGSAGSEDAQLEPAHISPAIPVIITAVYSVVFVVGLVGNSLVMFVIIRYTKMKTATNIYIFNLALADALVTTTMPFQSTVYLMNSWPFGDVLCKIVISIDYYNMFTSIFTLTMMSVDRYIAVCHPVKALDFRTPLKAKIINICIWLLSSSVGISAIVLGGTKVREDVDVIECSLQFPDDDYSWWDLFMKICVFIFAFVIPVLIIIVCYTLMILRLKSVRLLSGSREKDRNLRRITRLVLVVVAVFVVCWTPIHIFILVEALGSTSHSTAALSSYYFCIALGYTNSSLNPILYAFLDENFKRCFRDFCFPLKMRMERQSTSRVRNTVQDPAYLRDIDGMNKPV

CCN(Cc1ccn(C)n1)C(=O)CN(c1cc(N(C)C)ccc1Cl)S(=O)(=O)c1ccc(OC)c(OC)c1
IC50 [1]: 0.012 µM | IC50 (Orexin receptor type 2 [2]): 0.007 µM

CNC1CCCC1CN[C@H](C(=O)N1CCc2cc(OC)c(OC)cc2C1)C(C)(C)C (stereo partly drawn)
IC50 [3]: 3.6 µM | IC50 (Orexin receptor type 2 [4]): 0.028 µM

CCc1nc(OC)c2n1CCN([C@@H](C(=O)NC)c1ccccc1)[C@H]2CCc1ccc(C)c(C)c1
IC50 [1]: 0.005 µM | IC50 (Orexin receptor type 2 [2]): 0.004 µM

CC1(C)OC[C@H](NC(=O)Nc2ccc(Br)cc2Br)[C@H](c2ccccc2)O1
Ki (Orexin receptor type 2 [5]): 3.16 µM | Ratio [6]: 600 | inhibition [7]: < 40% | inhibition [8]: < 40% | inhibition [9]: < 40%

COc1cc2c(cc1OC)CN(C(=O)[C@@H](NCc1ccncc1)C(C)(C)C)CC2
inhibition [10]: < 30% | inhibition [11]: < 30%

COc1cc2c(cc1OC)CN(C(=O)C(Cc1ccccc1)c1ccccc1)CC2 (racemic)
solubility [12]: 810 µg/mL (≈ 2020 µM)

CCN(Cc1cc(C)n(C)n1)C(=O)CN(c1cc(N(C)C)ccc1Cl)S(=O)(=O)c1ccc(OC)c(OC)c1
IC50 [1]: 0.006 µM | IC50 (Orexin receptor type 2 [2]): 0.004 µM

Cc1cccc(-c2sc(CCCO)nc2C(=O)N2C[C@H]3C[C@H]3[C@H]2CNC(=O)c2c(C)nc3sccn23)c1
IC50 [1]: 0.019 µM | IC50 (Orexin receptor type 2 [2]): 0.017 µM

CN(C)c1ccc(NC(=O)Nc2ccnc3c(F)ccc(F)c23)cc1
Kd [13]: 0.00447 µM | Ratio [14]: > 50

CCN(Cc1cccc(C)n1)C(=O)CN(c1cc(N(C)C)ccc1Cl)S(=O)(=O)c1ccc(OC)c(OC)c1
IC50 [1]: 0.017 µM | IC50 (Orexin receptor type 2 [2]): 0.005 µM

Cc1nc(C(=O)N2CCC[C@H]2Cc2nnc(-c3ccccc3)o2)c(-c2ccccc2F)s1
Kd [13]: 0.00513 µM | Ratio [14]: > 100

Cn1ccc2cc(NC(=O)Nc3ccnc4ccccc34)ccc21
pKb [15]: 7.5 | pKb [16]: 5.6

CC1(C)OC[C@H](NC(=O)Nc2ccccc2)[C@H](c2ccccc2)O1
Ki [13]: 0.501 µM | Ki (Orexin receptor type 2 [5]): > 10 µM | Ratio [6]: 20

CCc1nc(OC)c2n1CCN([C@@H](C(=O)NC)c1ccccc1)[C@H]2CCc1ccc(C)c(F)c1
IC50 [1]: 0.049 µM | IC50 (Orexin receptor type 2 [2]): 0.002 µM

Cc1cc(NC(=O)Nc2ccc(N(C)C)cc2)c2cc(F)cc(F)c2n1
Kd [13]: 0.0269 µM | Ratio [14]: > 50

CC1(C)OC[C@H](NC(=O)Nc2cc(Cl)ccc2Cl)[C@H](c2ccccc2)O1
Ki [13]: 0.0631 µM | Ki (Orexin receptor type 2 [5]): > 5.01 µM | Ratio [6]: 80

COc1cc2c(cc1OC)CN(C(=O)C(Cc1ccccc1)C(=O)c1cc(Cl)cc(Cl)c1)CC2 (racemic)
IC50 [3]: 5.3 µM | IC50 (Orexin receptor type 2 [4]): 0.036 µM
